Test results: patent publication US20020137929A1, “1 - (3-heterocyclylphenyl) isothiourea, -isourea, -guanidine and -amidine herbicidal agents” (Intellectual Property Department, BASF Aktiengesellschaft, priority 1998, published 2002)

Experiments:
CASOB (Sicklepod) = assay: Preemergence herbicidal evaluation; assay type: in vivo, Cassia obtusifolia; details: preemergence, rated 4-5 weeks after treatment, 0-9 scale
In short: (§1)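 Scores (0–9) reflect visual comparison with control plants for stand, vigor, malformation, size and chlorosis. Compound was applied to the soil after sowing, before emergence, as an aqueous acetone spray (about 0.0156–0.500 kg/ha), and cups were kept in a greenhouse for 4–5 weeks.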

[1] = tested on: IPOHE (Morningglory, Ivyleaf); assay: Preemergence herbicidal evaluation; assay type: in vivo, Ipomoea hederacea; details: preemergence, rated 4-5 weeks after treatment, 0-9 scale
In short: as §1

ECHCG (Barnyardgrass) [2] = assay: Postemergence herbicidal evaluation; assay type: in vivo, Echinochloa crus-galli; details: postemergence
In short: (§2)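 Each compound, dispersed in an acetone/water mix (50/50) carrying 0.5% TWEEN 20, is nozzle-sprayed at 40 psi on approximately two-week-old seedlings at about 0.0156–0.500 kg/ha. Plants are assessed 4–5 weeks afterward on a 0–9 scale relative to control; duplicate tests are averaged.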

[3] = tested on: ECHORC (Watergrass (Calif.)); assay: Postemergence weed control under flooded paddy conditions; assay type: in vivo, Echinochloa oryzoides; details: postemergence weeds, rated 3 to 4 weeks after treatment
In short: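 Containers holding 3–5 cm weeds and rice at 1.5–2.5 leaves are flooded to 1.5–3 cm above soil. Compound in 50/50 v/v aqueous/acetone is then added directly to the water, about 0.0313–0.500 kg/ha. Plants are kept in the greenhouse and rated 0–9 visually at 3–4 weeks.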

[4] = tested on: CHEAL (Lambsquarters, Common); assay: Preemergence herbicidal evaluation; assay type: in vivo, Chenopodium album; details: preemergence, rated 4-5 weeks after treatment, 0-9 scale
In short: as §1

ZEAMX (Corn, Field) = assay: Preemergence herbicidal evaluation; assay type: in vivo, Zea mays; details: preemergence, rated 4-5 weeks after treatment, 0-9 scale
In short: as §1

[5] = tested on: TRZAWR (Wheat, Winter, cv Riband); assay: Postemergence herbicidal evaluation; assay type: in vivo, Triticum aestivum; details: postemergence
In short: as §2

[6] = tested on: GLXMAW (Soybean, Williams); assay: Postemergence herbicidal evaluation; assay type: in vivo, Glycine max, (L.) Merr. cv Williams; details: postemergence
In short: as §2

ABUTH (Velvetleaf) = assay: Postemergence herbicidal evaluation; assay type: in vivo, Abutilon theophrasti; details: postemergence
In short: as §2

SETVI (Foxtail, Green) = assay: Postemergence herbicidal evaluation; assay type: in vivo, Setaria viridis; details: postemergence
In short: as §2

ECHCG (Barnyardgrass) [7] = assay: Preemergence herbicidal evaluation; assay type: in vivo, Echinochloa crus-galli; details: preemergence, rated 4-5 weeks after treatment, 0-9 scale
In short: as §1

[8] = tested on: IPOHE (Morningglory, Ivyleaf); assay: Postemergence herbicidal evaluation; assay type: in vivo, Ipomoea hederacea; details: postemergence
In short: as §2

AMBEL (Ragweed, Common) = assay: Postemergence herbicidal evaluation; assay type: in vivo, Ambrosia artemisifolia; details: postemergence
In short: as §2

GALAP (Galium) = assay: Preemergence herbicidal evaluation; assay type: in vivo, Galium aparine; details: preemergence, rated 4-5 weeks after treatment, 0-9 scale
In short: as §1

CCOC(=O)CN1C(=O)C(CC(=O)NS(=O)(=O)c2ccccc2)SC1=Nc1cc(-n2c(=O)cc(C(F)(F)F)n(C)c2=O)c(F)cc1Cl (centres unmarked) [Compound 100, Ethyl 2-{{2-chloro-5-[3,6-dihydro-3-methyl-2,6-dioxo-4-(trifluoromethyl)-1(2H)-pyrimidinyl]-4-fluorophenyl}imino}-4-oxo-5-{[(phenylsulfonyl)-carbamoyl]methyl]-3-thiazolidineacetate]
CASOB rating (CASOB (Sicklepod); 0.0313 kg/ha): 0.0 | CASOB rating (CASOB (Sicklepod); 0.0625 kg/ha): 0.0 | CASOB rating (CASOB (Sicklepod); 0.1250 kg/ha): 0.0 | CASOB rating (CASOB (Sicklepod); 0.2500 kg/ha): 0.0 | CASOB rating (CASOB (Sicklepod); 0.5000 kg/ha): 8.0 | IPOHE rating ([1]; 0.0313 kg/ha): 1.0 | IPOHE rating ([1]; 0.0625 kg/ha): 0.0 | IPOHE rating ([1]; 0.1250 kg/ha): 0.0 | IPOHE rating ([1]; 0.2500 kg/ha): 2.0 | IPOHE rating ([1]; 0.5000 kg/ha): 5.0 | herbicidal rating ECHCG (ECHCG (Barnyardgrass) [2]; rate 0.0156 kg/ha): 1.0 | herbicidal rating ECHCG (ECHCG (Barnyardgrass) [2]; rate 0.0313 kg/ha): 3.0 | herbicidal rating ECHCG (ECHCG (Barnyardgrass) [2]; rate 0.0625 kg/ha): 4.0 | herbicidal rating ECHCG (ECHCG (Barnyardgrass) [2]; rate 0.1250 kg/ha): 7.0 | Herbicidal rating ECHORC ([3]; Rate 0.0313 kg/ha): 0.0 | Herbicidal rating ECHORC ([3]; Rate 0.0625 kg/ha): 0.0 | Herbicidal rating ECHORC ([3]; Rate 0.1250 kg/ha): 0.0 | Herbicidal rating ECHORC ([3]; Rate 0.2500 kg/ha): 3.0 | Herbicidal rating ECHORC ([3]; Rate 0.5000 kg/ha): 4.0 | CHEAL rating ([4]; 0.0313 kg/ha): 9.0 | CHEAL rating ([4]; 0.0625 kg/ha): 9.0 | CHEAL rating ([4]; 0.1250 kg/ha): 9.0 | CHEAL rating ([4]; 0.2500 kg/ha): 9.0 | CHEAL rating ([4]; 0.5000 kg/ha): 9.0 | ZEAMX rating (ZEAMX (Corn, Field); 0.0313 kg/ha): 0.0 | ZEAMX rating (ZEAMX (Corn, Field); 0.0625 kg/ha): 0.0 | ZEAMX rating (ZEAMX (Corn, Field); 0.1250 kg/ha): 0.0 | ZEAMX rating (ZEAMX (Corn, Field); 0.2500 kg/ha): 0.0 | ZEAMX rating (ZEAMX (Corn, Field); 0.5000 kg/ha): 1.0 | herbicidal rating TRZAWR ([5]; rate 0.0156 kg/ha): 3.0 | herbicidal rating TRZAWR ([5]; rate 0.0313 kg/ha): 4.0 | herbicidal rating TRZAWR ([5]; rate 0.0625 kg/ha): 3.5 | herbicidal rating TRZAWR ([5]; rate 0.1250 kg/ha): 4.0 | herbicidal rating GLXMAW ([6]; rate 0.0156 kg/ha): 5.5 | herbicidal rating GLXMAW ([6]; rate 0.0313 kg/ha): 6.0 | herbicidal rating GLXMAW ([6]; rate 0.0625 kg/ha): 6.5 | herbicidal rating GLXMAW ([6]; rate 0.1250 kg/ha): 7.0 | herbicidal rating ABUTH (ABUTH (Velvetleaf); rate 0.0156 kg/ha): 9.0 | herbicidal rating ABUTH (ABUTH (Velvetleaf); rate 0.0313 kg/ha): 9.0 | herbicidal rating ABUTH (ABUTH (Velvetleaf); rate 0.0625 kg/ha): 9.0 | herbicidal rating ABUTH (ABUTH (Velvetleaf); rate 0.1250 kg/ha): 9.0 | herbicidal rating SETVI (SETVI (Foxtail, Green); rate 0.0156 kg/ha): 2.0 | herbicidal rating SETVI (SETVI (Foxtail, Green); rate 0.0313 kg/ha): 9.0 | herbicidal rating SETVI (SETVI (Foxtail, Green); rate 0.0625 kg/ha): 6.0 | herbicidal rating SETVI (SETVI (Foxtail, Green); rate 0.1250 kg/ha): 7.0 | ECHCG rating (ECHCG (Barnyardgrass) [7]; 0.0313 kg/ha): 0.0 | ECHCG rating (ECHCG (Barnyardgrass) [7]; 0.0625 kg/ha): 0.0 | ECHCG rating (ECHCG (Barnyardgrass) [7]; 0.1250 kg/ha): 0.0 | ECHCG rating (ECHCG (Barnyardgrass) [7]; 0.2500 kg/ha): 1.0 | ECHCG rating (ECHCG (Barnyardgrass) [7]; 0.5000 kg/ha): 1.0 | herbicidal rating IPOHE ([8]; rate 0.0156 kg/ha): 5.0 | herbicidal rating IPOHE ([8]; rate 0.0313 kg/ha): 9.0 | herbicidal rating IPOHE ([8]; rate 0.0625 kg/ha): 9.0 | herbicidal rating IPOHE ([8]; rate 0.1250 kg/ha): 9.0 | herbicidal rating AMBEL (AMBEL (Ragweed, Common); rate 0.0156 kg/ha): 9.0 | herbicidal rating AMBEL (AMBEL (Ragweed, Common); rate 0.0313 kg/ha): 9.0 | herbicidal rating AMBEL (AMBEL (Ragweed, Common); rate 0.0625 kg/ha): 9.0 | herbicidal rating AMBEL (AMBEL (Ragweed, Common); rate 0.1250 kg/ha): 7.0 | GALAP rating (GALAP (Galium); 0.0313 kg/ha): 0.0 | GALAP rating (GALAP (Galium); 0.0625 kg/ha): 1.0 | GALAP rating (GALAP (Galium); 0.2500 kg/ha): 6.0 | GALAP rating (GALAP (Galium); 0.5000 kg/ha): 6.0
